Measured values as given in the supplement of paper PMC3493320.

Each compound was assayed on NCI-H295R (assay: IC50 (antiproliferative, ATP content)). Details: 48 h.
How it was run: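 Following overnight culture of adrenocortical carcinoma cells (1500 per well) in 1536-well plates with serum-free ITS-supplemented DMEM, library compounds were pin-transferred at 8 final concentrations from 0.6 nM to 46 µM. Incubation lasted 48 h at 37 °C, 5% CO2, and the CellTiter-Glo signal was read after 20 min at room temperature. Data were fitted with a four-parameter logistic model. Each IC50 came from that fit after normalisation to vehicle and positive-control wells, and compounds without a concentration response were reported as above the top dose.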
For `CC(=O)OCC(=O)[C@@]1(O)CC[C@H]2[C@@H]3CCC4=CC(=O)C=C[C@]4(C)[C@@]3(F)[C@@H](O)C[C@@]21C`, the IC50 was > 46 µM.
In the case of `C[C@@H]1O[C@@H](OC[C@H]2O[C@@H](Oc3c(-c4ccc(O)c(O)c4)oc4cc(O)cc(O)c4c3=O)[C@H](O)[C@@H](O)[C@@H]2O)[C@H](O)[C@H](O)[C@H]1O`, the IC50 is reported as > 46 µM.
For `OC(CN1CCC(Cc2ccc(F)cc2)CC1)c1ccc(Cl)cc1` (stereo not given), the IC50 was > 46 µM.
With `CC(C)(C)NC(=O)[C@H]4CC[C@@H]3[C@]4(C)CC[C@H]1[C@H]3CC[C@H]2NC(=O)\C=C/[C@]12C` the IC50 was > 46 µM.
`O=C1c2ccccc2C(=O)C1c1ccc(F)cc1` was tested, and the IC50 was > 46 µM.
`NC[C@@H]1O[C@H](O[C@H]2[C@@H](O)[C@H](O[C@@H]3[C@@H](O)[C@H](N)C[C@H](N)[C@H]3O[C@H]3O[C@H](CO)[C@@H](O)[C@H](O)[C@H]3N)O[C@@H]2CO)[C@H](N)[C@@H](O)[C@@H]1O.O=S(=O)(O)O` was tested, and the IC50 was > 46 µM.
`CCN1CCc2nc(N)oc2CC1.Cl.Cl` was tested, and the IC50 was > 46 µM.
`C[C@H](C(=O)[O-])c1cccc(Oc2ccccc2)c1.C[C@H](C(=O)[O-])c1cccc(Oc2ccccc2)c1.O.O.[Ca+2]` was tested, and the IC50 was > 46 µM.
`CC=CC1=C(C(=O)O)N2C(=O)[C@@H](NC(=O)[C@H](N)c3ccc(O)cc3)[C@H]2SC1.O` was tested, and the IC50 was > 46 µM.
With `CCC(=O)c1ccc(O)cc1` the IC50 was > 46 µM.
For `COC(=O)c1cccnc1`, the IC50 was > 46 µM.
In the case of `C[NH+](C)CCC(c1ccccc1)c1cccc[nH+]1.O=C([O-])/C=C\C(=O)[O-]` (stereo not given), the IC50 is reported as > 46 µM.
With `CCC(=O)O[C@]1(C(=O)CCl)[C@@H](C)C[C@H]2[C@@H]3CCC4=CC(=O)C=C[C@]4(C)[C@@]3(F)[C@@H](O)C[C@@]21C` the IC50 was > 46 µM.
With `CC(Cc1ccccc1)NC=O` (stereo not given) the IC50 was > 46 µM.
For `CC(C)C[C@H](CN)CC(=O)O`, the IC50 was > 46 µM.
`O=C([O-])P(=O)([O-])[O-].[Na+].[Na+].[Na+]` was tested, and the IC50 was > 46 µM.
For `CC(CCc1ccc(O)cc1)NCCc1ccc(O)c(O)c1` (stereo not given), the IC50 was > 46 µM.
In the case of `Cc1c(O)c(=O)ccn1C`, the IC50 is reported as > 46 µM.
`COc1ccc2c(c1)c1c3n2CCN(C)C3=NCC1` was tested, and the IC50 was > 46 µM.
With `NC1=NC(=O)N2CC12` (stereo not given) the IC50 was > 46 µM.
For `O=C(NC(Cc1cc(=O)[nH]c2ccccc12)C(=O)O)c1ccc(Cl)cc1` (stereo not given), the IC50 was > 46 µM.
With `Cl.Nc1c2c(nc3c1CCC3)CCCC2.O` the IC50 was > 46 µM.
In the case of `CN1CCCCC1CCN1c2ccccc2Sc2ccc(S(C)=O)cc21` (stereo not given), the IC50 is reported as > 46 µM.
In the case of `C[N+](C)(C)CC[N+]1(C)Cc2c(Cl)c(Cl)c(Cl)c(Cl)c2C1.[Cl-].[Cl-]`, the IC50 is reported as > 46 µM.
In the case of `COc1ccc2cc([C@H](C)CO)ccc2c1`, the IC50 is reported as > 46 µM.
For `CC(C[N+](C)(C)C)OC(N)=O.[Cl-]` (stereo not given), the IC50 was > 46 µM.
With `Clc1ccc2c(c1)C(c1ccccc1)=NCc1nncn1-2` the IC50 was > 46 µM.
With `CCCCCc1ccc(C)cc1O` the IC50 was > 46 µM.
With `CO[C@@H]1[C@H](OC(=O)/C=C/C=C/C=C/C=C/C(=O)O)CC[C@]2(CO2)[C@H]1[C@@]1(C)O[C@@H]1CC=C(C)C` the IC50 was > 46 µM.
With `CC(C)(Sc1cc(C(C)(C)C)c(O)c(C(C)(C)C)c1)Sc1cc(C(C)(C)C)c(O)c(C(C)(C)C)c1` the IC50 was > 46 µM.
For `COc1cc(OC)c(C(=O)CCCN2CCCC2)c(OC)c1.Cl`, the IC50 was > 46 µM.
With `C[C@]12CCC(=O)C=C1CC[C@H]1[C@@H]3CC[C@](O)(C(=O)CO)[C@@]3(C)C[C@H](O)[C@@]12F` the IC50 was > 46 µM.
In the case of `ClC1C(Cl)C(Cl)C(Cl)C(Cl)C1Cl` (stereo not given), the IC50 is reported as > 46 µM.
In the case of `IC(I)I`, the IC50 is reported as > 46 µM.
In the case of `CC(C)(C)OC(=O)c1ncn2c1[C@@H]1CCCN1C(=O)c1c(Br)cccc1-2`, the IC50 is reported as > 46 µM.
With `O=C(O)C(Cl)Cl` the IC50 was > 46 µM.
`CCN(Cc1ccc(Cl)nc1)/C(=C/[N+](=O)[O-])NC` was tested, and the IC50 was > 46 µM.
In the case of `CO/N=C(\C(=O)N[C@@H]1C(=O)N2C(C(=O)[O-])=C(CSc3nc(=O)c([O-])nn3C)CS[C@H]12)c1csc(N)n1.O.O.O.[Na+].[Na+]`, the IC50 is reported as > 46 µM.
For `CCOC(=O)COc1ccc2c(C)c(CCN(CC)CC)c(=O)oc2c1Cl.Cl`, the IC50 was > 46 µM.
In the case of `c1ccc2c(c1)Sc1ccccc1N2CCN1CCCC1`, the IC50 is reported as > 46 µM.
In the case of `O=Cc1ccccc1C=O`, the IC50 is reported as > 46 µM.
For `CCCN1CCC[C@@H]2Cc3n[nH]cc3C[C@H]21`, the IC50 was > 46 µM.
In the case of `CC(=O)CC(c1ccc([N+](=O)[O-])cc1)c1c(O)c2ccccc2oc1=O` (stereo not given), the IC50 is reported as > 46 µM.
For `O=S1(=O)OC(c2ccc(O)cc2)(c2ccc(O)cc2)c2ccccc21`, the IC50 was > 46 µM.
With `[C@]13([C@@](C(=O)CO)(CC[C@H]1[C@@H]2CCC=4[C@@]([C@H]2[C@H](C3)O)(\C=C/C(C=4)=O)C)O)C` the IC50 was > 46 µM.
`CC(=O)OO` was tested, and the IC50 was > 46 µM.
`O=C(O)CCCC/C=C(\c1ccccc1)c1cccnc1` was tested, and the IC50 was > 46 µM.
For `N#CCCN.N#CCCN.O=C(O)/C=C/C(=O)O`, the IC50 was > 46 µM.
In the case of `O=C([C@@H]([C@]1=CC=CC=C1)N=C)N[C@@](C2=O)([H])[C@@](N2[C@H]3[C@@]([O-])=O)([H])SC3(C)C.[Na+]`, the IC50 is reported as > 46 µM.
For `C#CCN(C)Cc1ccccc1.Cl`, the IC50 was > 46 µM.
With `N=C(N)c1ccc(OCCCCCOc2ccc(C(=N)N)cc2)cc1.O=S(=O)(O)CCO.O=S(=O)(O)CCO` the IC50 was > 46 µM.
In the case of `CN(C)C=Nc1c(I)cc(I)c(CCC(=O)[O-])c1I.[Na+]`, the IC50 is reported as > 46 µM.
With `Nc1nccs1` the IC50 was > 46 µM.
With `CN1[C@@H]2CC[C@H]1C[C@@H](OC(=O)c1c[nH]c3ccccc13)C2` the IC50 was > 46 µM.
`OC(c1ccccc1)(c1ccccc1)C1CCNCC1` was tested, and the IC50 was > 46 µM.
In the case of `C=C1c2cccc(O)c2C(=O)C2=C(O)[C@]3(O)C(=O)C(C(N)=O)=C(O)[C@@H](N(C)C)[C@@H]3[C@@H](O)[C@H]12.Cl`, the IC50 is reported as > 46 µM.
`C=CCC1(C(C)CCC)C(=O)N=C([S-])NC1=O.[Na+]` (stereo not given) was tested, and the IC50 was > 46 µM.
For `COc1ccc2nc(NC(=O)Nc3ccccc3)sc2c1`, the IC50 was > 46 µM.
With `Nc1ncnc2c1ncn2CCOCP(=O)(O)O` the IC50 was > 46 µM.
With `C#CCOc1ccc2c(C)cc(=O)oc2c1` the IC50 was > 46 µM.
With `CC[C@H](C)[C@H](N)C1=N[C@H](C(=O)N[C@@H](CC(C)C)C(=O)N[C@H](CCC(=O)O)C(=O)N[C@H](C(=O)N[C@H]2CCCCNC(=O)[C@H](CC(N)=O)NC(=O)[C@@H](CC(=O)O)NC(=O)[C@H](Cc3cnc[nH]3)NC(=O)[C@@H](Cc3ccccc3)NC(=O)[C@H]([C@@H](C)CC)NC(=O)[C@@H](CCCN)NC2=O)[C@@H](C)CC)CS1` the IC50 was > 46 µM.
`CCCC[N@@+]1(C)[C@@H]2C[C@@H](OC(=O)[C@H](CO)c3ccccc3)C[C@H]1[C@@H]1O[C@@H]12.[Br-]` was tested, and the IC50 was > 46 µM.
For `O=C1C[C@@H]2OCC=C3CN4CC[C@]56c7ccccc7N1[C@H]5[C@H]2[C@H]3C[C@H]46`, the IC50 was > 46 µM.
In the case of `O=C(NNCNNC(=O)c1ccncc1)c1ccncc1`, the IC50 is reported as > 46 µM.
In the case of `CCN(CC)CCOC(=O)C(C)(c1ccccc1)c1ccccc1`, the IC50 is reported as > 46 µM.
In the case of `CCCCCCCCCCOc1cc2c(O)c(C(=O)OCC)cnc2cc1OCC`, the IC50 is reported as > 46 µM.
`Cl.Oc1cn2c(n1)Nc1ccc(Cl)c(Cl)c1C2` was tested, and the IC50 was > 46 µM.
`OCCOc1ccccc1` was tested, and the IC50 was > 46 µM.
In the case of `CCOC(=O)c1cnc2cc(OCC(C)C)c(OCC(C)C)cc2c1O`, the IC50 is reported as > 46 µM.
In the case of `Cc1cccc(N(C)C(=S)Oc2ccc3ccccc3c2)c1`, the IC50 is reported as > 46 µM.
